Assay results: patent US6271238A, “Acetamide derivatives and protease inhibitors” (Nippon Kayaku Kabushiki Kaisha, priority 1996, dated 2001)
Counter-ions that a name gives are not always drawn. Like-named read-outs stand apart in the source and are kept apart here.

How the values were obtained:
Type in all cases: biochemical
Human thrombin = target: T1, Human thrombin (Homo sapiens, UniProt P00734); experiment: Inhibitory activity on proteases other than chymase: human thrombin
T1 construct: human thrombin
Procedure: (§1) (E) Measurement of inhibitory activity on proteases other than chymase
(§2) The inhibitory activity of the present compounds on human elastase, human cathepsin G, human urokinase, human thrombin, human plasmin, and human factor Xa was determined using their corresponding synthetic substrates in the same manner as for chymase. All the above proteases were those commercially available from Boehringer Mannheim or purified by a combination of known methods. The synthetic substrates were those produced by Peptide Renkyusho. The synthetic substrates for the respective proteases are as follows.
Human thrombin Benzyloxycarbonyl asparginyl prolyl arginyl
(§3) The test was conducted several times. Chymase was prepared for each test in the manner described above. The compounds examined were compounds prepared in the above-described examples.

Human cathepsin G = target: T2, Human cathepsin G (Homo sapiens, UniProt P08311); experiment: Inhibitory activity on proteases other than chymase: human cathepsin G; settings: succinyl alanyl alanyl propyl phenylmethylcoumarylamide substrate; read-out: 50% Inhibitory concentration toward Human cathepsin G
T2 sequence (P08311 21-255): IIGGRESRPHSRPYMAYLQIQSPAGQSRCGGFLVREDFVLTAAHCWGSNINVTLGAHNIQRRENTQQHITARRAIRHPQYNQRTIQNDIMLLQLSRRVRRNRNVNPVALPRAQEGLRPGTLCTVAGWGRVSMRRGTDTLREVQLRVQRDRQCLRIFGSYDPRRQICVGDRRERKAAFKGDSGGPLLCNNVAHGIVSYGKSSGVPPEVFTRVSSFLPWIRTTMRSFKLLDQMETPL
Procedure: as §1, §2
Human cathepsin G Succinyl alanyl alanyl propyl phenylmethyl-
as §3

Human urokinase = Human urokinase (Homo sapiens, UniProt P00749); experiment: Inhibitory activity on proteases other than chymase: human urokinase; settings: pyridyl glycyl arginyl methylcoumarylamide substrate; read-out: 50% Inhibitory concentration toward Human urokinase
Procedure: as §2, with “(E) Measurement of inhibitory activity on proteases other than chymase The inhibitory” for “The inhibitory”, “as follows. |Human urokinase Pyridyl glycyl arginyl methylcoumarylamide The test was conducted several times. Chymase was prepared for each test in the manner described above. The compounds examined were compounds prepared in the above-described examples.” for “as follows.”

Human factor Xa = target: T3, Human factor Xa (Homo sapiens, UniProt P00742); experiment: Inhibitory activity on proteases other than chymase: human factor Xa
T3 construct: human factor Xa
Procedure: as §1, §2
Human factor Xa Phenylmethyloxycarbonyl pyridyl glycyl arginyl
as §3

other human proteases = experiment: Inhibitory activity on other human proteases (summary)
Procedure: as §1, §2, §3

dog chymase = target: T4, dog chymase (Canis lupus familiaris, UniProt P21842); experiment: Inhibitory activity on dog chymase (angiotensin I as substrate); settings: pH 8.0, 37° C., 60 min, read-out: Dog Chymase (IC50: nM), 50% inhibitory concentration
T4 construct: 60 g dog heart was finely divided by scissors and a scalpel; from tissue; host or cells: dog heart
T4 sequence (P21842 22-249): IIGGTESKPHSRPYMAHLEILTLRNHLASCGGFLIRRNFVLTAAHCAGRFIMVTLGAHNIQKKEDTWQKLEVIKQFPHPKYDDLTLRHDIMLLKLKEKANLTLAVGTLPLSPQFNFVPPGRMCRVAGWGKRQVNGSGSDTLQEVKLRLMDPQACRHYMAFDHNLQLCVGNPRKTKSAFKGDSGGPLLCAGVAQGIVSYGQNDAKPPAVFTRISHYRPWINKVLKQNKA
Description: It is known that chymase is present in tissues of various animals, and its isolation and purification methods are described in Anal. Biochem., 137, 449 (1984) and FEBS Letters, 323, 119 (1993). In the present invention, chymase was purified by the methods described in these literatures, and the present compounds were examined for inhibitory activity on chymase, inhibitory action on activation of mast cells and eosinophils, and pharmacological action in animals. Hereinafter, specific methods are described. (c) Preparation of dog chymase 60 g dog heart was finely divided by scissors and a scalpel, suspended in 0.1 M phosphate buffer (pH 8.0), and disrupted by a Polytron homogenizer for 5 minutes to prepare a crude chymase enzyme solution. It was centrifuged at 22000×g for 15 minutes, and the precipitates were used as a chymase enzyme fraction. […] An active fraction decomposing the synthetic chymase substrate was recovered and concentrated and this product was used as a purified dog chymase in the following activity measurement. (D) Measurement of inhibitory activity on chymase (b) Measurement using angiotensin I as substrate The inhibitory activity on the human chymase and dog chymase was measured using angiotensin I (Peptide Kenkyusho) as substrate besides the above synthetic substrate. […] After the end of the reaction, produced angiotensin II was immediately measured by high performance liquid chromatography to determine the activity of the chymase to calculate 50% inhibitory concentration (IC50: nM). The test was conducted several times. Chymase was prepared for each test in the manner described above. The compounds examined were compounds prepared in the above-described examples. […] 50% Inhibitory concentration (IC50: nM) of each compound toward rat chymase, dog […] human […] Substrate: Succinyl leucyl leucyl valyl tyrosyl methylcoumarylamide (for rat […] angiotensin I (for human and dog chymase)

rat chymase = target: T5, rat chymase (Rattus norvegicus, UniProt P09650); experiment: Inhibitory activity on rat chymase (synthetic substrate)
T5 construct: 50 g rat tongue was finely divided by scissors and a scalpel; from tissue; host or cells: rat tongue
T5 sequence (P09650 21-260): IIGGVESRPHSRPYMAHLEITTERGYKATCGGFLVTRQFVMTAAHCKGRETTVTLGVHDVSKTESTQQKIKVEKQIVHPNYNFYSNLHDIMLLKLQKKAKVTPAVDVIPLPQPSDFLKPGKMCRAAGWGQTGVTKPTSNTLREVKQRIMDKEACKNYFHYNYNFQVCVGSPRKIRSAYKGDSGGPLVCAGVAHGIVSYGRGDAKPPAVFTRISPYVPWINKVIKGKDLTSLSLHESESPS
Procedure: In the present invention, chymase was purified by the methods described in these literatures, and the present compounds were examined for inhibitory activity on chymase, inhibitory action on activation of mast cells and eosinophils, and pharmacological action in animals. Hereinafter, specific methods are described. […] 50 g rat tongue was finely divided by scissors and a scalpel, suspended in 0.1 M phosphate buffer (pH 8.0), and disrupted by a Polytron homogenizer for 5 minutes to prepare a crude chymase enzyme solution. […] The supernatant was applied to an octyl Sepharose 4B column (40×100 mm) previously equilibrated with 0.1 M phosphate buffer (pH 8.0) containing 2 M sodium chloride and 5% ammonium sulfate, and the protein was eluted with a linear concentration gradient of from 2 M to 0 M sodium chloride. […] (D) Measurement of inhibitory activity on chymase (a) Measurement using the synthetic substrate The synthetic chymase substrate was used for measurement of the inhibitory activity on the rat chymase as a subtrate, and the fluorescence of formed aminomethylcoumarin after reaction was measured by a spectrophotometer. […] The test was conducted several times. Chymase was prepared for each test in the manner described above. The compounds examined were compounds prepared in the above-described examples. […] Succinyl leucyl leucyl valyl tyrosyl methylcoumarylamide (for rat […] angiotensin I (for human and dog chymase)

[1] = substrate succinyl leucyl leucyl valyl tyrosyl methylcoumarylamide, pH 8.0, 37° C., 15 min, read-out: Rat Chymase (IC50: nM), 50% inhibitory concentration

T3 sequence (P00742 235-488 limits assumed): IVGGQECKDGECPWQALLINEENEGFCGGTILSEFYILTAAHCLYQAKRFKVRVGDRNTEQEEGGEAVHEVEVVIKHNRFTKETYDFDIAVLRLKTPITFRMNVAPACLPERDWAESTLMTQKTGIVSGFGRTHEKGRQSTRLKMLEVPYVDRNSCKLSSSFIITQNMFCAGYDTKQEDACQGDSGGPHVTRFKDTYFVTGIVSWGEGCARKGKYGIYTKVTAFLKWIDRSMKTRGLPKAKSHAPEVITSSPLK
T3 sequence (P00742 41-179 partner limits assumed): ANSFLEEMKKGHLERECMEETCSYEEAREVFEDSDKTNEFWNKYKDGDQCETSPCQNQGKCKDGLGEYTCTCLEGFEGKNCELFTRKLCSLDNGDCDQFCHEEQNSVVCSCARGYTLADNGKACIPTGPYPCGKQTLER

| Structure (SMILES) | IC50 (Human thrombin) | IC50 (Human cathepsin G) | IC50 (Human urokinase) | IC50 (Human factor Xa) | inhibitory activity on other human proteases, in words (other human proteases) | IC50 (dog chymase) | IC50 (rat chymase; [1]) | IC50 (rat chymase) |
| --- | --- | --- | --- | --- | --- | --- | --- | --- |
| O=CNc1cnc(-c2ccccc2)n(CC(=O)NC(Cc2ccccc2)C(=O)C(=O)CCCOc2ccccn2)c1=O (stereo not shown) [Compound 79, 2-(5-Formylamino-6-oxo-2-phenyl-1,6-dihydropyrimidine-1-yl)-N-{2,3-dioxo-1-phenylmethyl-6-(2-pyridyloxy)}hexylacetamide] | > 10 µM | 0.42 µM | > 10 µM | > 10 µM | no inhibitory activity on other human proteases | 0.32 nM | 19 nM | – |
| CC(C)(C)OC(=O)Nc1cnc(-c2ccccc2)n(CC(=O)NC(Cc2ccccc2)C(=O)C(=O)CCCOc2ccccn2)c1=O (stereo not shown) [Compound 74, 2-(5-t-Butyloxycarbonylamino-6-oxo-2-phenyl-1,6-dihydropyrimidine-1-yl)-N-{2,3-dioxo-6-(2-pyridyloxy)-1-phenylmethyl}hexylacetamide] | > 10 µM | 0.09 µM | > 10 µM | > 10 µM | no inhibitory activity on other human proteases | 0.92 nM | 510 nM | – |
| O=C(Cn1c(-c2ccccc2)ncc(NS(=O)(=O)NCc2ccccc2)c1=O)NC(Cc1ccccc1)C(=O)C(=O)CCCOc1ccccn1 (stereo not shown) [Compound 82, 2-(5-Benzylaminosulfonylamino-6-oxo-2-phenyl-1,6-dihydropyrimidine-1-yl)-N-{2,3-dioxo-1-phenylmethyl-6-(2-pyridyloxy)}hexylacetamide] | > 10 µM | 0.019 µM | > 10 µM | > 10 µM | no inhibitory activity on other human proteases | 0.14 nM | – | 19 nM |
| CCCCC(=O)C(=O)C(Cc1ccccc1)NC(=O)Cn1c(-c2ccccc2)ncc(N)c1=O (stereo not shown) [Compound 44] | – | – | – | – | – | 16 nM | 79 nM | – |
| Nc1cnc(-c2ccccc2)n(CC(=O)NC(Cc2ccccc2)C(=O)C(=O)CCCc2ccccc2)c1=O (stereo not shown) [Compound 40] | > 10 µM | > 10 µM | > 10 µM | > 10 µM | – | 13 nM | 46 nM | – |
| Nc1cnc(-c2ccccc2)n(CC(=O)NC(Cc2ccccc2)C(=O)C(=O)CCCn2ccccc2=O)c1=O (stereo not shown) [Compound 73, 2-(5-Amino-6-oxo-2-phenyl-1,6-dihydropyrimidine-1-yl)-N-{2,3-dioxo-1-phenylmethyl-6-(2-oxo-1,2-dihydropyridine-1-yl)}hexylacetamide hydrochloride] | – | – | – | – | no inhibitory activity on other human proteases | 2.9 nM | 550 nM | – |
| CC(=O)C(=O)C(Cc1cccc(F)c1)NC(=O)Cn1c(-c2ccccc2)ncc(N)c1=O (stereo not shown) [Compound 52, 2-(5-Amino-6-oxo-2-phenyl-1,6-dihydropyrimidine-1-yl)-N-{1-(3-fluorophenyl)methyl-2,3-dioxo}butylacetamide] | > 10 µM | 0.35 µM | > 10 µM | > 10 µM | – | 27 nM | 190 nM | – |
| CC(C)(C)OC(=O)Nc1cnc(-c2ccccc2)n(CC(=O)NC(Cc2ccccc2)C(=O)C(=O)CCCn2ccccc2=O)c1=O (stereo not shown) [Compound 72, 2-(5-t-Butyloxycarbonylamino-6-oxo-2-phenyl-1,6-dihydropyrimidine-1-yl)-N-{2,3-dioxo-6-(2-oxo-1,2-dihydropyridine-1-yl)-1-phenylmethyl}hexylacetamide] | > 10 µM | 0.54 µM | > 10 µM | > 10 µM | no inhibitory activity on other human proteases | 1.6 nM | 2100 nM | – |
| CCOC(=O)CCCC(=O)C(=O)C(Cc1cccc(F)c1)NC(=O)Cn1c(-c2ccccc2)ncc(N)c1=O (stereo not shown) [Compound 54] | – | – | – | – | no inhibitory activity on other human proteases | 3.6 nM | 45 nM | – |
| CC(=O)Nc1cnc(-c2ccccc2)n(CC(=O)NC(Cc2ccccc2)C(=O)C(=O)CCCOc2ccccn2)c1=O (stereo not shown) [Compound 80, 2-(5-Acetylamino-6-oxo-2-phenyl-1,6-dihydropyrimidine1-yl)-N-{2,3-dioxo-1-phenylmethyl-6-(-2-pyridyloxy)}hexyl-acetamide] | > 10 µM | 0.018 µM | > 10 µM | > 10 µM | no inhibitory activity on other human proteases | 0.35 nM | 52 nM | – |
